Results on twelve molecules are retold here after patent US11285153B2, “Substituted pyrimidine piperazine compound and use thereof” (SUNSHINE LAKE PHARMA CO., LTD., priority 2017, dated 2022).

As a reminder, the Ki is a dissociation constant, usually derived from enzyme kinetics or from competition with a known ligand. A high value points to a looser hold on the target. By IC50 is commonly meant the concentration needed to halve the response being measured. The low end stands for inhibition by little substance, the high end for a need for much substance. The AUC(0-inf) is the area under the concentration-time curve extrapolated to infinity. The low end stands for less exposure, the high end for more exposure. The AUC(0-t) is the area under the concentration-time curve up to a stated or last time point. A high value points to high exposure. A word on the Cmax: it is the maximum level reached in the sampled fluid or tissue. In general, Tmax refers to the time at which the peak concentration occurs. By clearance is commonly meant a measure of how efficiently the substance is removed, as volume per time. Low readings indicate inefficient removal, high ones efficient removal. What is called half-life is the time needed for the level to fall by half in the phase considered. Read a high half-life as slow loss. The term bioavailability denotes dose-corrected exposure relative to a reference, in per cent. High values mean much systemic uptake, low ones little systemic uptake.

Each structure is given as a SMILES string.

One data set addresses T1, 5-HT1A receptor (Homo sapiens, UniProt P08908).
T1 construct: host or cells: human HEK-293 cells, membrane homogenate
T1 sequence (P08908 1-422): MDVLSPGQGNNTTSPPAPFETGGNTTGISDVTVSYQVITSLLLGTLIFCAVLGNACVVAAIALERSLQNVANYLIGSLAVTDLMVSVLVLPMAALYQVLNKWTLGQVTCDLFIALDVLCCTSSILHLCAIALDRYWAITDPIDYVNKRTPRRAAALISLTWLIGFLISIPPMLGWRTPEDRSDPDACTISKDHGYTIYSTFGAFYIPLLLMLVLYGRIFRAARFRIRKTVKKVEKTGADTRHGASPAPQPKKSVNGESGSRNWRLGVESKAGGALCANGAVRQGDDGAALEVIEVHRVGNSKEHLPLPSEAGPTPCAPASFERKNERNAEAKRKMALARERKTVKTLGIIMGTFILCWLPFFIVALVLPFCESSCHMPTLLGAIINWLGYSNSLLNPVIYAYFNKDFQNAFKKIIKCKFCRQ
As to the kind of experiment: h5-HT1A binding affinity test, [3H]8-OH-DPAT, HEK-293 cell membranes. The following applies: 0.3 nM [3H]8-OH-DPAT, 22° C., 60 minutes; from IC50 by ChengPrusoff equation. The protocol:
Example B: h5-HT1A Binding Affinity Test
To a mixture of human HEK-293 cell membrane homogenate (36 μg protein), 0.3 nM [^3H]8-OH-DPAT (Perkin-Elmer) and buffer (50 mM Tris-HCl (pH 7.4), 10 mM MgSO4, 0.5 mM EDTA, 2 μg/ml aprotinine) was added test compound or not under a condition of 22° C. The reaction mixture was incubated for 60 minutes.
The standard reference compound was 8-OH-DPAT. To a mixture of the above condition was added 10 μM 8-OH-DPAT to measure the non-specific binding value. A competitive curve was obtained by testing the data of a series of concentrations of 8-OH-DPAT in different experiments.
The incubated samples were quickly filtered through a glass fiber membrane (GF/B, Packard) impregnated with 0.3% PEI by a 96-well cell collector (Unifilter, Packard) under vacuum, and repeatedly rinsed with cold 50 mM Tris-HCl for several times. The filter was dried and the residual radioactivity was calculated in a scintillation counter (Topcount, Packard) by using scintillation fluid (Microscint 0, Packard). The experimental results were expressed as a percentage of inhibition of specific binding of radioligand to the control group.
The binding assay of [^3H]8-OH-DPAT (0.3 nM) to the 5-HT1A receptor in human HEK-293 cells was performed by a scintillation proximity assay of the membrane. The test compound needed to be tested at least three times at a concentration exceeding 6 log, and the data was subjected to nonlinear regression analysis by a Hill equation curve to obtain an IC50 value, which was then calculated by the ChengPrusoff equation to obtain a Ki value.

Data set [1] addresses T2, humanized 5-HT transporter (SERT) (Homo sapiens, UniProt P31645).
T2 construct: expressed in transfected cells; host or cells: CHO cells, membrane homogenate
As to the kind of experiment: Affinity to humanized 5-HT transporter (SERT), [3H]imipramine binding, transfected CHO cell membranes. Particulars: 2 nM [3H]imipramine, 22° C., 60 minutes. The method, then:
Example A: Evaluation of the Affinity of the Compound of the Invention to Humanized 5-HT Transporter Transfected by CHQ Cells
To a mixture of cell membrane homogenate protein (12 μg), 2 nM [^3H] imipramine, buffer (50 mM Tris-HCl (pH 7.4), 120 mM NaCl, 5 mM KCl, and 0.1% BSA) was added test compound or not under a condition of 22° C. The reaction mixture was incubated for 60 minutes.
To the mixture of the above condition was added 10 μM imipramine to measure the non-specific binding value.
The incubated samples were quickly filtered through a glass fiber membrane (GF/B, Packard) impregnated with 0.3% PEI by a 96-well cell collector (Unifilter, Packard) under vacuum, and repeatedly rinsed with cold 50 mM Tris-HCl and 150 mM NaCl for several times. The filter was dried and the residual radioactivity was calculated in a scintillation counter (Topcount, Packard) by using scintillation fluid (Microscint 0, Packard). The experimental results were expressed as a percentage of inhibition of specific binding of radioligand to the control group.
The standard reference compound was imipramine. The competitive curve was obtained by a series of concentration experiments and the IC50 was calculated.

A further data set deals with mice. As to the kind of experiment: Forced swimming test of mice, stationary time. The following applies: for Stationary time: 3 mg/kg intraperitoneally 30 minutes before the test, last 4 minutes of 6 minutes, Mean ± SEM, vehicle 120.4 ± 16.5. It is filed as in vivo, C57BL/6 mice. The method, then: The effects of the compound of the invention on the stationary time in a forced swimming test of mice were evaluated in the present invention.
Animals (C57BL/6 mice) were fed in the animal house barrier system one week earlier to adapt to the rearing environment of animal house. Three days before the trial, each animal was touched 2-3 minutes/day. On the day of the experiment, the animals were transferred to the operating room 60 minutes in advance, and were randomly divided into a vehicle group (20% HP-β-CD+80% H2O), a 40 mg/kg dose group of hydrochloride of Desipramine as the standard reference compound, 1, 3, 10 mg/kg dose groups of the phosphate of the test compound, a 3 mg/kg dose group of the hydrochloride of Vilazone, and a 3 mg/kg dose group of hydrochloride of compound A, a total of 7 groups, the number of animals in each group was 15-16. The vehicle, the standard reference compound of Desipramine, the test compound, Vilazodone or Compound A were intraperitoneally injected 30 minutes before the test. The mice were placed in the experimental apparatus during the test. The experimental apparatus was a cylindrical organic transparent glass tank (23 cm high and 12 cm in diameter). The water level was 8 cm from the bottom and the water temperature was 22±2° C. The length of each test was 6 minutes. There was one animal in each sink, recorded by an Ethovision software and a double-blind manual counting analysis. The stationary time of the last 4 minutes of the animal was recorded. All the experimental results were expressed as mean ±standard error (Mean ±SEM). Prism 6.0 statistical software was used to test and analyze the results. The significance of the difference was P<0.05, and P<0.01 was very significant.

Data set [2] is described as follows: Pharmacokinetic evaluation in rats after intravenous or intragastric administration. Particulars: SD, rat, plasma. Type of data set: in vivo. The method, then: Pharmacokinetics of the compound of the invention in rats, dogs and monkeys were studied and evaluated.
The compound was administered to the tested animals in the form of 5% DMSO+5% Kolliphor HS15+2% (2% HCl)+88% Saline saline solution or 10% DMSO+10% Kolliphor HS15+80% normal saline solution. For the intravenous administration group, the dose was 1 mg/kg, and then the venous blood (0.3 mL) was taken at a time of 0, 0.083, 0.25, 0.5, 1.0, 2.0, 5.0, 7.0, and 24 hours after administration, and centrifuged at 3,000 or 4,000 rpm for 10 minutes. The plasma solution was collected and stored at −20° C. or −70° C. For the intragastric administration group, the dose was 2.5 mg/kg, and then the venous blood (0.3 mL) was taken at a time of 0, 0.083, 0.25, 0.5, 1.0, 2.0, 5.0, 7.0, and 24 hours after administration, and centrifuged at 3,000 or 4,000 rpm for 10 minutes. The plasma solution was collected and stored at −20° C. or −70° C.
The plasma solutions obtained from each of the above groups were subjected to LC/MS/MS analysis.
The LC/MS/MS system for analysis included the Agilent 1200 Series vacuum degasser, binary pump, orifice autosampler, thermostatic column oven, and Agilent G6430A triple quadrupole mass spectrometer with electrospray ionization (ESI) source.
Analysis was performed using a waters XBridge C18 (2.1×50 mm) column. The column was 3.5 μM and injection volume was 5 μL. The analytical conditions were as follows: mobile phase A: water+2 mM ammonium formate+0.1% formic acid mobile phase B: methanol+2 mM ammonium formate+0.1% formic acid. The flow rate was 0.4 mL/min.

T2 sequence (P31645 whole entry): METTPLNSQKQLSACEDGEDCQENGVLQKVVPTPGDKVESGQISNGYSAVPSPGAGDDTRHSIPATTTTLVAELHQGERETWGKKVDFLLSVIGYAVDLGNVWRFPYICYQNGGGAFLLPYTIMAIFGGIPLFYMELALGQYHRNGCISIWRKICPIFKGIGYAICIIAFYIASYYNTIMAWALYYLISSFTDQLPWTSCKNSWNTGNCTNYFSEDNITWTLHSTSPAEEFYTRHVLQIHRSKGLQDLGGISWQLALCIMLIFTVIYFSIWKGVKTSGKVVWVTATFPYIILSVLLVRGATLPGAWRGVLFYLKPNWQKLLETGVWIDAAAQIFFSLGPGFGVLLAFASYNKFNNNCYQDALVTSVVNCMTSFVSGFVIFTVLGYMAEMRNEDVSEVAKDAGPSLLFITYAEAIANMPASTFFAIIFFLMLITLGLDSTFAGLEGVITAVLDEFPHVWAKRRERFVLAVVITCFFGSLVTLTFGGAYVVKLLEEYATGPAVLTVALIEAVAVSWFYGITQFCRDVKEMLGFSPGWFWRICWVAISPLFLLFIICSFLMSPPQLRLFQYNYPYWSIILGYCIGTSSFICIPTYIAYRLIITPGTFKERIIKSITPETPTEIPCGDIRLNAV

In turn, `N#Cc1ccc2[nH]cc(CCCCN3CCN(c4ncc(-c5cccc(C(N)=O)n5)cn4)CC3)c2c1` [Example 5, 6-(2-(4-(4-(5-cyano-1H-indol-3-yl)butyl)piperazin-1-yl)pyrimidin-5-yl)pyridine-2-carboxamide] showed a Ki at 5-HT1A receptor of 0.53 nM. The same molecule registered an IC50 in data set [1] of 0.66 nM.
For `N#Cc1ccc2[nH]cc(CCCN3CCN(c4ncc(-c5cccc(C(N)=O)n5)cn4)CC3)c2c1` [Example 6, 6-(2-(4-(3-(5-cyano-1H-indol-3-yl)propyl)piperazin-1-yl)pyrimidin-5-yl)pyridine-2-carboxamide] the same measures were 1.1 nM and 0.23 nM.
The molecule `N#Cc1ccc2[nH]cc(CCCCN3CCN(c4ncc(-c5ccc(C(N)=O)nc5)cn4)CC3)c2c1` [Example 3, 5-(2-(4-(4-(5-cyano-1H-indol-3-yl)butyl)piperazin-1-yl)pyrimidin-5-yl)pyridine-2-carboxamide] yielded a Ki on 5-HT1A receptor of 2.19 nM. In data set [1], this molecule yielded an IC50 of 0.79 nM.
Consider `Cc1nc(-c2cnc(N3CCN(CCCc4c[nH]c5ccc(C#N)cc45)CC3)nc2)sc1C(N)=O` [drawing 37], for which the “Stationary time” value in the data set on mice turned out to be 75.1 ± 13.3 s.
Turning to `Cc1nc(-c2cnc(N3CCN(CCCCc4c[nH]c5ccc(C#N)cc45)CC3)nc2)sc1C(N)=O` [Example 7, 2-(2-(4-(4-(5-cyano-1H-indol-3-yl)butyl)piperazin-1-yl)pyrimidin-5-yl)-4-methylthiazole-5-formamide], on 5-HT1A receptor, the Ki was 1.01 nM. Also, the half-inhibitory concentration (IC50) in data set [1] stood at 0.77 nM.
As for `CCOC(=O)c1sc(-c2cnc(N3CCN(CCCCc4c[nH]c5ccc(C#N)cc45)CC3)nc2)nc1C` [Example 9, ethyl 2-(2-(4-(4-(5-cyano-1H-indol-3-yl)butyl)piperazin-1-yl)pyrimidin-5-yl)-4-methylthiazole-5-formate], on 5-HT1A receptor, the affinity, expressed as Ki, was 0.99 nM. This molecule also showed an IC50 in data set [1] of 0.45 nM.
Regarding `N#Cc1ccc2[nH]cc(CCCCN3CCN(c4ccc5oc(C(N)=O)cc5c4)CC3)c2c1` [Vilazodone], the “Stationary time” value in the data set on mice is 107.8 ± 16.1 s. In addition, the “Effect on stationary time compared with the vehicle group” value in the data set with mice (forced swimming test, same dose (3 mg/kg)) is on record as “slightly reduce the stationary time of mice, but there is no significant difference”.
As for `CCOC(=O)c1sc(-c2cnc(N3CCN(CCCc4c[nH]c5ccc(C#N)cc45)CC3)nc2)nc1C` [Example 10, ethyl 2-(2-(4-(3-(5-cyano-1H-indol-3-yl)propyl)piperazin-1-yl)pyrimidin-5-yl)-4-methylthiazole-5-formate], on 5-HT1A receptor, the affinity corresponds to a Ki of 2.16 nM. In data set [1], the IC50 is 0.13 nM.
As for `N#Cc1ccc2[nH]cc(CCCCN3CCN(c4ncc(-c5ccc(C(N)=O)cn5)cn4)CC3)c2c1` [Example 1, 6-(2-(4-(4-(5-cyano-1H-indol-3-yl)butyl)piperazin-1-yl)pyrimidin-5-yl)nicotinamide], the affinity at 5-HT1A receptor, expressed as Ki, was 2.13 nM. This molecule registered a concentration for half-maximal inhibition (IC50) in data set [1] of 0.68 nM.
On 5-HT1A receptor, `N#Cc1ccc2[nH]cc(CCCN3CCN(c4ncc(-c5ccc(C(N)=O)cn5)cn4)CC3)c2c1` [Example 2, 6-(2-(4-(3-(5-cyano-1H-indol-3-yl)propyl)piperazin-1-yl)pyrimidin-5-yl)nicotinamide] came in with a Ki of 4.31 nM. In data set [1], this molecule displayed an IC50 of 0.45 nM.
On 5-HT1A receptor, `Cc1nc(-c2cnc(N3CCN(CCCc4c[nH]c5ccc(C#N)cc45)CC3)nc2)sc1C(N)=O` [Example 8, 2-(2-(4-(3-(5-cyano-1H-indol-3-yl)propyl)piperazin-1-yl)pyrimidin-5-yl)-4-methylthiazole-5-formamide] had a Ki of 2.14 nM. This molecule also displayed a half-inhibitory concentration (IC50) in data set [1] of 0.33 nM. For the same molecule, in data set [2] (iv, 1 mg/kg), the AUC(0-inf) was 1820 ng·h/mL, the AUC(0-t) is 1740 ng·h/mL, the concentration peaked (Cmax) at 1000 ng/mL and the Tmax turned out to be 0.083 h. Moreover, in data set [2] (iv, 1 mg/kg), the clearance came out at 9.22 mL/min/kg and the half-life is 1.72 h. Moreover, in data set [2] (iv, 1 mg/kg, read-out: Vss), the Vd turned out to be 1.3 L/kg. In data set [2] (po, 2.5 mg/kg), the AUC(0-inf) was found to be 1550 ng·h/mL, the AUC(0-t) stood at 1740 ng·h/mL, the highest level (Cmax) was 590 ng/mL and the time to peak (Tmax) came out at 1 h. In data set [2] (po, 2.5 mg/kg), the bioavailability came out at 39.8% and the half-life is 1.58 h.
As for `N#Cc1ccc2[nH]cc(CCCN3CCN(c4ncc(-c5ccc(C(N)=O)nc5)cn4)CC3)c2c1` [Example 4, 5-(2-(4-(3-(5-cyano-1H-indol-3-yl)propyl)piperazin-1-yl)pyrimidin-5-yl)pyridine-2-carboxamide], on 5-HT1A receptor, the affinity, expressed as Ki, was 4.13 nM. Also, in data set [1], the IC50 stood at 0.81 nM.
